From ChEMBL document CHEMBL5543144, “Discovery of a Novel Potent Tetrazole Antifungal Candidate with High Selectivity and Broad Spectrum” (J Med Chem, 2024)
In brackets after ≈: the same amount, converted by molar mass.

How the values were obtained:
Assay type in all cases: functional
[1] = test system: Pichia kudriavzevii; test: Antifungal activity against Candida krusei 4946 assessed as inhibition of fungal growth incubated for 24 hrs by CLSI protocol based microbroth dilution method
[2] = test system: Candida albicans; test: Antifungal activity against Candida albicans SC5314 assessed as inhibition of fungal growth incubated for 24 hrs by CLSI protocol based microbroth dilution method
[3] = test system: Nakaseomyces glabratus; test: Antifungal activity against Candida glabrata 537 assessed as inhibition of fungal growth incubated for 48 hrs by CLSI protocol based microbroth dilution method
[4] = test system: Candida parapsilosis; test: Antifungal activity against Candida parapsilosis 22019 assessed as inhibition of fungal growth incubated for 24 hrs by CLSI protocol based microbroth dilution method; settings: Lodderomyces parapsilosis
[5] = test system: Cryptococcus neoformans; test: Antifungal activity against Cryptococcus neoformans H99 assessed as inhibition of fungal growth incubated for 72 hrs by CLSI protocol based microbroth dilution method
[6] = test system: Aspergillus fumigatus; test: Antifungal activity against Aspergillus fumigatus 7544 assessed as inhibition of fungal growth incubated for 48 hrs by CLSI protocol based microbroth dilution method
[7] = test system: Candida tropicalis; test: Antifungal activity against Candida tropicalis 2718 assessed as inhibition of fungal growth incubated for 24 hrs by CLSI protocol based microbroth dilution method

SMILES | MIC50 [1] [µg/mL] | MIC50 [2] [µg/mL] | MIC50 [3] [µg/mL] | MIC50 [4] [µg/mL] | MIC50 [5] [µg/mL] | MIC50 [6] [µg/mL] | MIC50 [7] [µg/mL]
C[C@@H](n1ccc2cc(Cl)ccc2c1=O)[C@](O)(Cn1cncn1)c1cc(F)ccc1F | 0.063 (≈ 0.146 µM) | < 0.008 | < 0.008 | < 0.008 | < 0.008 | 0.25 (≈ 0.58 µM) | < 0.008
C[C@@H](n1ccc2cc(F)ccc2c1=O)[C@](O)(Cn1cncn1)c1ccc(F)cc1F | 0.016 (≈ 0.0386 µM) | < 0.008 | 0.016 (≈ 0.0386 µM) | < 0.008 | < 0.008 | 0.25 (≈ 0.603 µM) | < 0.008
C[C@@H](n1ncc2cn(-c3ccc(Cl)c(Cl)c3)nc2c1=O)[C@](O)(Cn1cncn1)c1ccc(F)cc1F | > 64 | 0.125 (≈ 0.235 µM) | 0.5 (≈ 0.939 µM) | 0.25 (≈ 0.47 µM) | > 64 | > 64 | 0.25 (≈ 0.47 µM)
C[C@@H](n1ncc2cn(-c3ccc(C(F)(F)F)cc3)nc2c1=O)[C@](O)(Cn1cncn1)c1ccc(F)cc1F | 16 (≈ 30.1 µM) | 0.25 (≈ 0.47 µM) | 0.5 (≈ 0.941 µM) | 0.5 (≈ 0.941 µM) | 1 (≈ 1.88 µM) | > 64 | 0.5 (≈ 0.941 µM)
C[C@@H](n1ncc2cn(-c3ccc(Cl)cc3)nc2c1=O)[C@](O)(Cn1cncn1)c1ccc(F)cc1F | > 64 | 0.5 (≈ 1 µM) | 1 (≈ 2.01 µM) | 1 (≈ 2.01 µM) | 4 (≈ 8.03 µM) | > 64 | 1 (≈ 2.01 µM)
C[C@@H](n1ccc2cc(F)ccc2c1=O)[C@](O)(Cn1cncn1)c1cc(F)ccc1F | 0.125 (≈ 0.302 µM) | < 0.008 | < 0.008 | < 0.008 | < 0.008 | 0.25 (≈ 0.603 µM) | < 0.008
C[C@@H](n1ccc2cc(-c3ccccc3)ccc2c1=O)[C@](O)(Cn1cncn1)c1ccc(F)cc1F | 1 (≈ 2.12 µM) | < 0.008 | 0.063 (≈ 0.133 µM) | 0.063 (≈ 0.133 µM) | 0.5 (≈ 1.06 µM) | 8 (≈ 16.9 µM) | 0.016 (≈ 0.0339 µM)
C[C@@H](n1ccc2cc(F)ccc2c1=O)[C@](O)(Cn1cnnn1)c1ccc(F)cc1F | 1 (≈ 2.41 µM) | < 0.008 | 0.063 (≈ 0.152 µM) | 0.063 (≈ 0.152 µM) | 0.016 (≈ 0.0385 µM) | 4 (≈ 9.63 µM) | < 0.008
C[C@@H](n1ncc2cc(Cl)ccc2c1=O)[C@](O)(Cn1cncn1)c1cc(F)ccc1F | 0.125 (≈ 0.289 µM) | < 0.008 | < 0.008 | < 0.008 | < 0.008 | 0.25 (≈ 0.579 µM) | < 0.008
C[C@@H](n1ncc2cn(-c3ccc(F)cc3)nc2c1=O)[C@](O)(Cn1cncn1)c1ccc(F)cc1F | 8 (≈ 16.6 µM) | 0.25 (≈ 0.519 µM) | 4 (≈ 8.31 µM) | 2 (≈ 4.15 µM) | 2 (≈ 4.15 µM) | > 64 | 1 (≈ 2.08 µM)
C[C@@H](n1ccc2cc(OC(F)(F)F)ccc2c1=O)[C@](O)(Cn1cncn1)c1ccc(F)cc1F | 0.063 (≈ 0.131 µM) | < 0.008 | < 0.008 | < 0.008 | < 0.008 | 1 (≈ 2.08 µM) | < 0.008
C[C@@H](n1ccc2cc(C(F)(F)F)ccc2c1=O)[C@](O)(Cn1cncn1)c1ccc(F)cc1F | 0.063 (≈ 0.136 µM) | < 0.008 | < 0.008 | < 0.008 | < 0.008 | 0.5 (≈ 1.08 µM) | < 0.008
C[C@@H](n1ncc2cn(-c3ccc(F)c(F)c3)nc2c1=O)[C@](O)(Cn1cncn1)c1ccc(F)cc1F | > 64 | 0.5 (≈ 1 µM) | 1 (≈ 2 µM) | 1 (≈ 2 µM) | > 64 | > 64 | 0.25 (≈ 0.501 µM)
C[C@@H](n1ncc2cc(Br)ccc2c1=O)[C@](O)(Cn1cncn1)c1ccc(F)cc1F | 0.063 (≈ 0.132 µM) | < 0.008 | 0.016 (≈ 0.0336 µM) | < 0.008 | < 0.008 | 1 (≈ 2.1 µM) | < 0.008
C[C@@H](n1cnc2cc(C(F)(F)F)ccc2c1=O)[C@](O)(Cn1cnnn1)c1ccc(F)cc1F | > 4 | < 0.008 | < 0.008 | 0.125 (≈ 0.268 µM) | 4 (≈ 8.58 µM) | 16 (≈ 34.3 µM) | < 0.008
C[C@@H](n1ccc2cc(Br)ccc2c1=O)[C@](O)(Cn1cncn1)c1ccc(F)cc1F | 0.063 (≈ 0.133 µM) | < 0.008 | < 0.008 | < 0.008 | < 0.008 | 1 (≈ 2.1 µM) | < 0.008
COc1ccc2c(=O)n([C@H](C)[C@](O)(Cn3cncn3)c3ccc(F)cc3F)ccc2c1 | 0.125 (≈ 0.293 µM) | < 0.008 | < 0.008 | < 0.008 | < 0.008 | 1 (≈ 2.35 µM) | < 0.008
C[C@@H](n1ncc2cn(-c3ccccc3)nc2c1=O)[C@](O)(Cn1cncn1)c1ccc(F)cc1F | > 64 | 0.5 (≈ 1.08 µM) | 1 (≈ 2.16 µM) | 1 (≈ 2.16 µM) | > 64 | > 64 | 0.5 (≈ 1.08 µM)
C[C@@H](n1cnc2cc(OC(F)(F)F)ccc2c1=O)[C@](O)(Cn1cnnn1)c1ccc(F)cc1F | > 4 | < 0.008 | < 0.008 | 0.25 (≈ 0.518 µM) | 0.125 (≈ 0.259 µM) | 32 (≈ 66.3 µM) | 0.031 (≈ 0.0643 µM)
Cc1ccc2c(=O)n([C@H](C)[C@](O)(Cn3cncn3)c3ccc(F)cc3F)ccc2c1 | 0.125 (≈ 0.305 µM) | < 0.008 | < 0.008 | < 0.008 | < 0.008 | 0.5 (≈ 1.22 µM) | < 0.008
C[C@@H](n1ncc2cn(-c3ccc(C#N)cc3)nc2c1=O)[C@](O)(Cn1cncn1)c1ccc(F)cc1F | > 64 | 0.5 (≈ 1.02 µM) | 0.5 (≈ 1.02 µM) | 1 (≈ 2.05 µM) | 8 (≈ 16.4 µM) | > 64 | 1 (≈ 2.05 µM)
C[C@@H](n1ncc2cn(-c3ccc(OC(F)(F)F)cc3)nc2c1=O)[C@](O)(Cn1cncn1)c1ccc(F)cc1F | > 64 | 0.5 (≈ 0.913 µM) | 1 (≈ 1.83 µM) | 0.5 (≈ 0.913 µM) | > 64 | > 64 | 0.5 (≈ 0.913 µM)
C[C@@H](n1ccc2ccccc2c1=O)[C@](O)(Cn1cncn1)c1ccc(F)cc1F | 0.125 (≈ 0.315 µM) | < 0.008 | 0.016 (≈ 0.0404 µM) | 0.016 (≈ 0.0404 µM) | 0.016 (≈ 0.0404 µM) | 0.5 (≈ 1.26 µM) | 0.016 (≈ 0.0404 µM)
C[C@@H](n1ncc2cn(-c3ccc(F)c(Cl)c3)nc2c1=O)[C@](O)(Cn1cncn1)c1ccc(F)cc1F | > 64 | 0.5 (≈ 0.969 µM) | 8 (≈ 15.5 µM) | 2 (≈ 3.88 µM) | > 64 | > 64 | 0.5 (≈ 0.969 µM)
C[C@@H](n1cnc2cc(F)ccc2c1=O)[C@](O)(Cn1cnnn1)c1ccc(F)cc1F | > 4 | < 0.008 | 0.25 (≈ 0.6 µM) | 0.5 (≈ 1.2 µM) | 4 (≈ 9.61 µM) | 16 (≈ 38.4 µM) | 0.25 (≈ 0.6 µM)
C[C@@H](n1ncc2ccccc2c1=O)[C@](O)(Cn1cncn1)c1ccc(F)cc1F | 1 (≈ 2.52 µM) | 0.008 (≈ 0.0201 µM) | 0.031 (≈ 0.078 µM) | 0.063 (≈ 0.159 µM) | 0.063 (≈ 0.159 µM) | 4 (≈ 10.1 µM) | 0.063 (≈ 0.159 µM)
